The values below come from PMC8129133, “Polymer-free corticosteroid dimer implants for controlled and sustained drug delivery” (Nature Communications, 2021).

Structures are written as SMILES. Where “and” joins values, the source holds several entries; their conditions need not be identical. Equal entries are not always repeated.

For series [1] the following is noted: rabbit, in vivo.
Protocol: Analysis of samples was conducted using a SCIEX API 5000 mass spectrometer (Applied Biosystems/MDS Sciex), Shimadzu LC-20ADXR HPLC pumps, Shimadzu SCL-10A controller, and HTS-PAL autoinjector (CTC Analytics). Chromatography was performed using a Waters X-Bridge C-18 (3.5 µm; 100 × 2.1 mm) column equipped with a Phenomenex KrudKatcher ULTRA HPLC In-Line Filter (Part AF0-8497). The column was held at a temperature of 40 °C, while the autosampler compartment was maintained at 4 °C. Mobile phases consisted of: (A) 95:5 H2O:MeOH with 2 mM Ammonium Acetate (NH4OAc) and (B) 85:10:5 MeOH:H2O:MeCN with 2 mM NH4OAc. A gradient elution profile was employed, following the trend of: (0 min 30% B), (0.50 min 30% B), (2.50 min 65% B), (2.51 min 100% B), (4.50 min 100% B), (4.51 min 30% B), (6.50 min 30% B). Flow was constant at 0.6 mL min^-1 with an injection volume of 10 µL. For MS parameters, the system was operated in positive ion mode with a TurboIonSpray probe monitoring transitions (±0.2 AMU) of m/z 393.2 → 373.2 for Dex and 397.3 → 377.2 for the Dex-d4 deuterated internal standard. Analyst Version 1.4.2 (Applied Biosystems-MDS Sciex) was used for instrument control, data acquisition, and peak integrations, while calculations including peak area ratios, standard curve regressions, sample concentration values, and descriptive statistics were performed with the assistance of the ALIS2004 validated LIMS.
Dex and internal standard (Dex-d4) were extracted from vitreous humor on ice using protein precipitation. Samples were initially centrifuged at approximately 1500 rcf for 5 min to remove any interfering particulates. Stepwise, the protocol for extraction from vitreous humor was to (1) pipette 50 µL of vitreous humor into an extraction tube; (2) add 13 µL H2O and vortex to mix; (3) add 25 µL internal standard spiking solution (100 ng/mL Dex-d4 in a 1:1 solvent of MeOH:H2O); (4) add 25 µL of make-up reagent (1:1 mixture of MeOH:H2O); (5) vortex mix for 5-10 s at a speed setting of 4 or 5; (6) centrifuge at ~60 rcf for 2 min; (7) add 300 µL of 9:1 MeOH:5 mM NH4OAc at pH 7 to precipitate proteins; (8) cap and vortex mix at full speed for 2 min; (9) Centrifuge at approximately 2700 rcf for 5 min; (10) transfer 300 µL of supernatant to a separate tube; (11) vortex the collected supernatant for 30 s at a low to moderate speed; (12) centrifuge at ~1500 rcf for 5 min; (13) store prepared extract at 4 °C until analysis by LC-MS/MS.
Pharmacokinetics. […] Animals were anesthetized with ketamine (up to ~50 mg/kg) and xylazine (up to ~10 mg/kg). Eyes were surgically prepared before intravitreal procedures with 5% betadine and topical anesthetic eye drops (proparacaine hydrochloride, 0.5%). Prior to test article administration, pupils were dilated with topical application of one drop each of 10% phenylephrine and 1% tropicamide on each cornea.
Implants (30 G × 6 mm Dex-TEG-Dex extruded rods, Ozurdex®) were injected (30 G needle for Dex-TEG-Dex, 22 G needle for Ozurdex®) intravitreally into the eyes of New Zealand White rabbits (female, 1.5–2.5 kg) with terminal timepoints of 1 and 2 weeks and 1, 2, 3, 6, 9, 12, and 14 months. Ocular tissues and plasma were collected at each timepoint and analyzed for Dex by LC/MS/MS. Whole globe eyes were collected into centrifuge tubes and remained frozen for a minimum of 24 h before dissection and tissue collection. During dissection, vitreous humor containing any remaining test article was collected frozen into pre-weighed centrifuge tubes and stored at −80 °C until further processing.
The test system of series [2] is vascular endothelial growth factor (VEGF) induced blood-retinal barrier breakdown. Briefly: Rabbit pharmacodynamics, VEGF-induced vascular leakage. The note with it: single eyes, Fig 9b. The format is in vivo, Dutch Belted rabbits. Also noted: key to FA Scoring: 0: major vessels straight, some tortuosity of smaller vessels, no vessel dilation; 1: increased tortuosity of major vessels and/or some vessel dilation; 2: leakage between major vessels, significant vessel dilation; 3: leakage between major and minor vessels, minor vessels still visible; 4: leakage between major and minor vessels, minor vessels poorly/not visible. The protocol:
Pharmacodynamics. Rabbit pharmacodynamics studies were performed at Absorption Systems California (San Diego, CA, USA). All studies were conducted in compliance with relevant ethical regulations, including the USDA Animal Welfare Act (i.e., relevant sections of Section 9, Part 1, 2, and 3 of the Code of Federal Regulations) and in compliance with Absorption Systems’ Animal Welfare Assurance filed with the National Institutes of Health. Protocols were reviewed and approved by Absorption Systems’ Institutional Animal Care and Use Committee (IACUC) prior to the initiation of procedures. Treatment of animals was in accordance with conditions specified in the Guide for Care and Use of Laboratory Animals (NRC, 2011, National Academy Press). Animals were anesthetized with intramuscular ketamine hydrochloride (15-20 mg/kg) and xylazine (5 mg/kg) prior to test article injection or vascular leakage induction. The eye area was surgically prepped with 5% betadine and rinsing with balanced salt solution, followed by administration of 1–2 drops of topical proparacaine hydrochloride (0.5%). […] Test articles (27 G × 6 mm, 30 G × 6 mm, and 32 G × 6 mm Dex-TEG-Dex extruded rods, or Ozurdex®) were injected intravitreally in Dutch Belted rabbits (male, 1.84–2.49 kg, 5–6 months) on Day 0 and vascular leakage was induced by an intravitreal injection of VEGF (500 ng/eye) at acute and chronic timepoints (1 week, 2.5, 4.5, 6, 9, 12, and/or 18 months) post-implantation. Post-injection analgesia was provided by 0.02-0.05 mg/kg IM/SC buprenorphine. Negative control rabbits received a sham injection while positive control rabbits received a 2 mg solution dose of triamcinolone acetonide (Kenalog-40). Ophthalmic exams, including fundus microscopy and slit lamp microscopy, were carried out over the 3 days post-VEGF induction and vascular leakage was measured by fluorescein angiography on the third day post-VEGF induction. Eyes were graded based on fundus and fluorescein angiography images using a scoring system as follows[76]: 0 – major vessels straight, some tortuosity of smaller vessels, no vessel dilation; 1 – increased tortuosity of major vessels and/or some vessel dilation; 2 – leakage between major vessels, significant vessel dilation; 3 – leakage between major and minor vessels, minor vessels still visible; and 4 – leakage between major and minor vessels, minor vessels poorly/not visible.

The conditions of series [3]: cited from earlier work.

`CC1CC2C3CCC4=CC(=O)C=CC4(C)C3(F)C(O)CC2(C)C1(O)C(=O)COC(=O)OCCOCCOCCOC(=O)OCC(=O)C1(O)C(C)CC2C3CCC4=CC(=O)C=CC4(C)C3(F)C(O)CC21C` (stereo not shown) [Dex-TEG-Dex 30G x 6 mm implant]: in series [1], the “Dex in aqueous humor (ng/ml)” value is “BQL”, the “Dex in retina (ng/g)” value is given as “BQL” and the “Dex in vitreous humor (ng/ml)” value was “BQL”.

As for `CC1CC2C3CCC4=CC(=O)C=CC4(C)C3(F)C(O)CC2(C)C1(O)C(=O)COC(=O)OCCOCCOCCOC(=O)OCC(=O)C1(O)C(C)CC2C3CCC4=CC(=O)C=CC4(C)C3(F)C(O)CC21C` (stereo not shown) [Dex-TEG-Dex (30G x 6 mm implant)], the “FA Scoring” value is 0 in series [2] (7 days); 0 in series [2] (136 days); 2 and 3 and 4 and 0 and 1 in series [2] (360 d).

Consider `OCCOCCOCCO` [TEG, triethylene glycol], for which, in series [3], the “toxicity by systemic routes of administration” value is “no significant adverse toxicity”.
